Data from PMC9610465, “The Inhibition of α-Glucosidase, α-Amylase and Protein Glycation by Phenolic Extracts of Cotoneaster bullatus, Cotoneaster zabelii, and Cotoneaster integerrimus Leaves and Fruits: Focus on Anti-Hyperglycemic Activity and Kinetic Parameters” (Molecules, 2022).
In brackets after ≈: the same amount, converted by molar mass.

Columns and labels:
α-glucosidase = conditions: cited from earlier work
α-amylase = conditions: earlier studies; cited from earlier work
[1] = target: T1, Porcine pancreatic α-amylase (Sus scrofa, UniProt P00690); experiment: α-Amylase inhibitory assay (potato starch, DNS); format: biochemical; conditions: mean ± SD (n = 3)
T1 construct: purchased Sigma-Aldrich
T1 sequence (P00690 16-511): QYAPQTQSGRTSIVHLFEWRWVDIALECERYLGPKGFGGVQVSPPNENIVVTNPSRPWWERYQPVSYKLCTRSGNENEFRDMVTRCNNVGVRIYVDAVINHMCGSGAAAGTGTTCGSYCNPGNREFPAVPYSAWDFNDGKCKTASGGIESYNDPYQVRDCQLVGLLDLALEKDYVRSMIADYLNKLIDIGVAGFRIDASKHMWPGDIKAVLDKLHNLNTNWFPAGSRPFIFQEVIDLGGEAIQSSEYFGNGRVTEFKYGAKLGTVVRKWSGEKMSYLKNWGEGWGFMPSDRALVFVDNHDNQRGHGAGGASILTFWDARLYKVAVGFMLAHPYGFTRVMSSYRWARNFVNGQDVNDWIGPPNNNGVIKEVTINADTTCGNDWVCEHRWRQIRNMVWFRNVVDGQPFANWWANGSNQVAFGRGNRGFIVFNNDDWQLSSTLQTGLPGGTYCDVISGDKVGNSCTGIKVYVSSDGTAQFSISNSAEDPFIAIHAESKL

[2] = tested on: bovine serum albumin (BSA); experiment: Protein glycation inhibitory assay (BSA–fructose model); format: biochemical
Protocol: The ability of the plant extracts/compounds to inhibit fructose-induced protein glycation was determined according to a method previously published with minor modifications. […] Briefly, fructose solution (600 µL) was mixed with BSA (600 µL) and 600 µL tested extracts/compounds at different concentrations and then the reaction mixture was incubated in the capped amber vials in the dark at 37 °C for six days.

[3] = BSA–fructose model, 37 °C, six days, mean ± SD (n = 3)

Compound | type of α-glucosidase inhibition (α-glucosidase) | IC50 [1] [µM] | IC50 Protein Glycation [2, 3] | further results
Oc1cc(O)c2c(c1)O[C@H](c1ccc(O)c(O)c1)[C@@H](O)[C@@H]2c1c(O)cc(O)c2c1O[C@H](c1ccc(O)c(O)c1)[C@@H](O)C2 [B3] | – | – | – | type of interaction with α-glucosidase (α-glucosidase): noncompetitive interaction
C[C@H]1O[C@H](O[C@H]2[C@H](O)[C@@H](O)[C@@H](O[C@H]3[C@H](O)[C@@H](O)C(O)O[C@@H]3CO)O[C@@H]2CO)[C@H](O)[C@@H](O)[C@@H]1N[C@H]1C=C(CO)[C@@H](O)[C@H](O)[C@H]1O (stereo partly shown) [AR, acarbose] | competitively interacts | – | – | type of α-amylase inhibition (α-amylase): mixed type
O=c1c(O[C@@H]2O[C@H](CO)[C@H](O)[C@H](O)[C@H]2O)c(-c2ccc(O)c(O)c2)oc2cc(O)cc(O)c12 [HP, hyperoside] | – | > 861 | 14.34 ± 1.15 ^A, B µg/mL | –
Oc1cc(O)c2c(c1)O[C@H](c1ccc(O)c(O)c1)[C@H](O)[C@H]2c1c(O)cc(O)c2c1O[C@H](c1ccc(O)c(O)c1)[C@H](O)C2 [PB2, procyanidin B2] | – | > 346 | – | type of interaction with α-glucosidase (α-glucosidase): noncompetitive interaction; IC50 Protein Glycation ([2]; bovine, 6 days, pH 7.4): 2.20 ± 0.01 ^A µg/mL
Oc1cc(O)c2c(c1)O[C@H](c1ccc(O)c(O)c1)[C@H](O)C2 [ECA, (–)-epicatechin] | mixed-type inhibitors | > 689 | 8.79 ± 0.13 ^A, B µg/mL | –
O=c1c(O[C@@H]2O[C@H](CO)[C@H](O)[C@H](O)[C@H]2O[C@@H]2OC[C@@H](O)[C@H](O)[C@H]2O)c(-c2ccc(O)c(O)c2)oc2cc(O)cc(O)c12 [QPH, quercetin 3-O-β-D-(2″-O-β-D-xylopyranosyl)galactopyranoside] | – | – | 15.78 ± 1.14 ^A, B µg/mL | IC50 α-Amylase [1]: >400 µg/mL
Oc1cc(O)c2c(c1)O[C@H](c1ccc(O)c(O)c1)[C@@H](O)C2 [(+)-catechin] | mixed-type inhibitors | – | – | –
O=C(O)CC(OC(=O)/C=C/c1ccc(O)c(O)c1)C(=O)O (stereo not shown) [CAD, caffeoylmalic acid] | – | > 1350 | – | IC50 Protein Glycation ([2]; bovine, 6 days, pH 7.4): 17.26 ± 1.09 ^B µg/mL
N=C(N)NN [AG, aminoguanidine] | – | – | 71.09 ± 4.20 ^D µg/mL | IC50 Protein Glycation ([2]; BSA–fructose model, 37 °C, six days, mean ± SD (n = 3), listed as aminoguanidine): 71.1 µg/mL (≈ 960 µM)
C[C@@H]1O[C@@H](OC[C@H]2O[C@@H](Oc3c(-c4ccc(O)c(O)c4)oc4cc(O)cc(O)c4c3=O)[C@H](O)[C@@H](O)[C@@H]2O)[C@H](O)[C@H](O)[C@H]1O [rutin] | mixed type | – | – | –
